Columns and labels:
[1] = test system: Molm13; assay: Caspase-Glo 3/7 caspase3.7 activity, dose matrix, Molm13; type: cell-based; settings: single agent, Molm13 (FLT3-ITD), 6 hours treatment, highest dose 3 uM
Protocol: (§1) Both compounds were dissolved in 100% DMSO (Sigma, Catalog number D2650) at concentrations of 10 mM and stored at −20° C. until use.
(§2) The cell line Molm13 used in this study was purchased from Leibniz-Institut DSMZ (ACC 554) and MV-4-11 from American Type Cell Collection (ATCC® CRL-9591). The cell lines were cultured at 37° C. in a 5% CO2 incubator, Molm13 in RPMI (Lonza, 12-702F) and MV-4-11 in IMDM (Hyclone, SH30228.01) media complemented with 10% fetal bovine serum (Seradigm, 1500-500). The cells were passaged twice a week and the medium was changed every 2 to 3 days.
(§3) Caspase3.7 activity was measured by the Caspase-Glo® 3/7 kit from Promega (G8092), 9000 cells/well were dispensed into clear-bottom 384-well black plates (Greiner, #781091) in triplicates with 30 μl/well growth media. […] Then 30 ul/well of the Caspase-Glo® 3/7 reagents was added to each well at the end and luminescence was recorded on an Envision plate reader (Perkin Elmer). Measured Luminescence is proportional to the amount of caspase activity present. […]
(§4) The Compound A and Compound B “dose matrix”, consisted of the following: both compounds were subjected to a 11 dose 1:3 serial dilution with the highest dose of 3 uM and down to no-compound control. […] The percent caspase3.7 activity was calculated using the following calculation: (I-control/compound treated)×100. […]

[2] = test system: MV-4-11; assay: Caspase-Glo 3/7 caspase3.7 activity, dose matrix, MV-4-11; type: cell-based; settings: single agent, MV-4-11 (FLT3-ITD), 6 hours treatment, highest dose 3 uM
Protocol: as §1, §2, §3, §4

[3] = test system: MV-4-11 cells; assay: Western blot of FLT3-mediated signaling and Bcl-2 family proteins; type: cell-based; settings: 6 hours
Protocol: B. Western blot analysis of FLT3-mediated signaling pathways and expression of Bcl-2 family proteins in MV-4-11 cells treated for 6 hours with Midostaurin. S63845 alone or in combination. De-phosphorylation of FLT3-ITD lead to inactivation of STAT5 and MAPK and was accompanied by significant downregulation of MAPK-mediated phosphorylation of Mcl-1 at Thr163, site required for Mcl-1 stability. Consequently, Midostaurin reduced level of Mcl-1.
Cells (3×10^6/well) were seeded in 6-well plates in 5 mL of complete RPMI medium and exposed to Midostaurin and S63845 given alone or in combination. Control cells received DMSO. Cells were incubated for 6 hours and then collected, washed twice in PBS and lysed in RIPA buffer (ThermoFisher Scientific) supplemented with 1× Protease and Phosphatase Inhibitor cocktail (ThermoFisher Scientific). Lysates were kept on ice for 20 minutes with vortexing every 5 minutes, then briefly sonicated and centrifuged at 13500 rpm for 15 minutes. Supernatant was collected and protein content was measured using […]. Cell lysates (30-50 μg protein per well) were resolved by electrophoresis on 4%-20% gradient precast sodium dodecyl sulfate-polyacrylamide gels (Bio-Rad, Hercules, Calif.) and transferred to PVDF membrane (Bio-Rad). […]

[4] = test system: MV4-11 FLT3-ITD; assay: Dynamic BH3 profiling (cytochrome C release); type: cell-based; settings: 4 hours after treatment with Midostaurin (100 nM)
Protocol: Cells were subjected to BH3 profiling assay 4 hours after treatment with Midostaurin (100 nM). Increase in cytochrome C release is a quantitative measure of mitochondrial apoptosis initiation.
BH3 profiling was performed in black 384-well plates according to A. Letai method (https://letailab.dana-farber.org/bh3-profiling.html). Briefly, cells ([…]) were seeded in 6-well plates in 5 mL of complete RPMI medium and exposed to Midostaurin and S63845 given alone or in combination. Control cells received DMSO. Cells were incubated for 6 hours, collected, washed twice in PBS and resuspended in MEB buffer (150 mM mannitol, 10 mM HEPES-KOH pH 7.5, 150 mM KCl, 1 mM EGTA, 1 mM EDTA, 0.1% BSA, 5 mM succinate) to a final density 1×10^6/mL. Cells (15 μL) were added to 384-well plate containing containing peptides % BH3 mimetics and 15 μL of 0.002% digitonin in MEB buffer. Cells were incubated for 1 hour in 25° C. and subsequently fixed in 10 μL of 4% formaldehyde in PBS for 10 minutes. To terminate the fixation, 10 μL of N2 buffer (1.7M Tris, 1.25M Glycine pH 9.1) was added and cells were left at room temperature for 5 minutes. […] Cytochrome C release was measured by flow cytometry.

[5] = test system: solid tumors; settings: single agent, Phase I trial; cited from earlier work
[6] = test system: AML with FLT3 mutation; settings: added to cytarabine and daunorubicin induction and cytarabine consolidation; cited from earlier work

| SMILES | induction of caspase activity, maximum increase [1] [%] | induction of caspase activity, maximum increase [2] [%] | level of pro-apoptotic Bim [3] | level of Mcl-1 ([3]; MV-4-11 cells) | mitochondrial priming to Mcl-1 inhibitor S63845 and Bim peptide [4] | efficacy [5] | toxicity [5] | overall survival [6] |
| --- | --- | --- | --- | --- | --- | --- | --- | --- |
| COc1ccccc1-c1nccc(COc2ccccc2C[C@@H](Oc2ncnc3sc(-c4ccc(F)cc4)c(-c4ccc(OCCN5CCN(C)CC5)c(Cl)c4C)c23)C(=O)O)n1 [Compound B, (2R)-2-{[(5Sa)-5-{3-chloro-2-methyl-4-[2-(4-methylpiperazin-1-yl)ethoxy]phenyl}-6-(4-fluorophenyl)thieno[2,3-d]pyrimidin-4-yl]oxy}-3-(2-{[2-(2-methoxyphenyl)pyrimidin-4-yl]methoxy}phenyl)propanoic acid] | 87 | 89 |  |  |  |  |  |  |
| CO[C@]1(O)[C@H](N(C)C(=O)c2ccccc2)C[C@H]2O[C@]1(C)n1c3ccccc3c3c4c(c5c6ccccc6n2c5c31)C(=O)NC4 [Compound A, 4′-N-benzoylstaurosporine] | 33 | 24 | increased | reduced | increased | limited efficacy | low toxicity | increased overall survival |

— patent publication US20220016118A1, “COMBINATION OF A MCL-1 INHIBITOR AND MIDOSTAURIN, USES AND PHARMACEUTICAL COMPOSITIONS THEREOF” (LES LABORATOIRES SERVIER, priority 2018, published 2022)
